We go through 15 compounds from PubChem BioAssay (NCI).

Test systems include SF-295 CNS; SW-620 colon; CCRF-CEM leukemia; SK-MEL-28 melanoma; COLO 205 colon; K-562 leukemia; HS 578T breast; MDA-MB-435; MCF7 breast.
Test in all cases: DTP human tumour cell line panel, 48 h

Several values for one entry are separate records, joined by “and”; a condition that tells them apart may be missing. Equal entries are not always repeated.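 Results reflect a 48-hour exposure of cells in 96-well plates to compound at five concentrations. GI50 is the concentration that inhibits growth by half. At the TGI there is no net growth.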

As for `COc1ccc(-c2nnc(-c3c(C)n(C)n(-c4ccccc4)c3=O)o2)cc1`, the TGI in the assay on SF-295 CNS, in the assay with SW-620 colon, in the assay with CCRF-CEM leukemia, with SK-MEL-28 melanoma, in the assay on COLO 205 colon and with K-562 leukemia was over 100 µM throughout.

As to `CCCCN=C(NC#N)N(Cc1ccccc1)Cc1ccccc1`, the TGI in the assay on SF-295 CNS came out at 63.2 µM; with SW-620 colon, 30.4 µM; in the assay on CCRF-CEM leukemia, 49.2 µM; with SK-MEL-28 melanoma, 81.2 µM; with COLO 205 colon it was 32.5 µM; with K-562 leukemia it was 88.1 µM.

For the compound `COc1cc([C@H]2c3cc4c(cc3[C@H](NCc3ccc([N+](=O)[O-])cc3)C3COC(=O)[C@H]32)OCO4)cc(OC)c1O` (stereo partly specified), the TGI was 5.14 µM with SF-295 CNS; over 38.3 µM in the assay with SW-620 colon; over 100 µM with CCRF-CEM leukemia; over 100 µM in the assay on SK-MEL-28 melanoma; over 43.9 µM with COLO 205 colon; over 100 µM with K-562 leukemia.

For `CCC(=O)C(C)C(=O)C(=O)C(=O)OC` (stereo unspecified), the total growth inhibition concentration (TGI) was over 100 µM in the assay on SF-295 CNS; over 45.7 µM in the assay with SW-620 colon; over 69.1 µM in the assay on CCRF-CEM leukemia; over 100 µM in the assay on SK-MEL-28 melanoma; over 100 µM with COLO 205 colon; over 100 µM with K-562 leukemia.

`COC(=O)[C@@]1(O)CC(C)C=C1C=O` (stereo partly specified): the TGI in the assay on SF-295 CNS, in the assay with SW-620 colon, with CCRF-CEM leukemia, in the assay with SK-MEL-28 melanoma, in the assay with COLO 205 colon and in the assay on K-562 leukemia was over 100 µM each time.

As for `CCO/C=C1\N=C(C(Cl)c2ccccc2)OC1=O` (stereo unspecified), the TGI in the assay with SF-295 CNS, in the assay on SW-620 colon, in the assay on CCRF-CEM leukemia, in the assay on SK-MEL-28 melanoma, with COLO 205 colon and with K-562 leukemia was over 100 µM throughout.

Take `CC(=O)OC1CC[C@@]2(C)C(CC[C@]3(C)C2CC=C2[C@@H]4CC(C)(C)CCC4(C)CCC23C)[C@@]1(C)C(=O)O` (stereo partly specified): the TGI was 51.3 µM in the assay on SF-295 CNS; 40.8 µM in the assay with SW-620 colon; 45.3 µM with HS 578T breast; over 87.9 µM in the assay with CCRF-CEM leukemia; 44.1 µM with MDA-MB-435; 46.5 µM with SK-MEL-28 melanoma. In addition, the TGI in the assay on COLO 205 colon was found to be 48.5 µM; with K-562 leukemia, 61.9 µM; in the assay with MCF7 breast, 40.1 µM.

For the compound `CN(C(=O)C12C3(C(=O)C(C)(C)C)C4C5(C#N)C3C1(C(=O)C(C)(C)C)C5C42C(=O)C(C)(C)C)C(C)(C)C` (stereo unspecified), the TGI in the assay with SF-295 CNS, in the assay on SW-620 colon, in the assay on CCRF-CEM leukemia, in the assay on SK-MEL-28 melanoma, in the assay on COLO 205 colon and with K-562 leukemia was over 50 µM throughout.

On to `CC(C)(c1ccc(Oc2ccc(C#N)c(C#N)c2)cc1)c1ccc(Oc2ccc(C#N)c(C#N)c2)cc1`, for which the GI50 in the assay on SF-295 CNS, in the assay with CCRF-CEM leukemia, with SK-MEL-28 melanoma, in the assay on COLO 205 colon and in the assay with K-562 leukemia was over 100 µM in each case. In addition, the concentration for total growth inhibition (TGI) in the assay with SF-295 CNS, in the assay with SW-620 colon, in the assay on CCRF-CEM leukemia, in the assay on SK-MEL-28 melanoma, in the assay with COLO 205 colon and in the assay with K-562 leukemia was over 100 µM in each case.

In the case of `CC(=O)OC(C)(C)/C=C/C(=O)[C@](C)(O)[C@H]1[C@H](O)C[C@@]2(C)[C@@H]3CC=C4[C@@H](C[C@H](O)C(=O)C4(C)C)[C@]3(CO)C(=O)C[C@]12C`, the TGI in the assay with SF-295 CNS is 0.772 µM and 1.64 µM; with SW-620 colon, 20 µM; with CCRF-CEM leukemia it was 0.96 µM and 2.62 µM; in the assay with SK-MEL-28 melanoma it was 0.697 µM and 0.254 µM; with K-562 leukemia it was 29.5 µM. Further, the concentration for 50% growth inhibition (GI50) is 0.159 µM in the assay on SW-620 colon; 0.0959 µM in the assay on CCRF-CEM leukemia; 0.034 µM in the assay on SK-MEL-28 melanoma; 0.159 µM in the assay on COLO 205 colon; 0.164 µM in the assay on K-562 leukemia.

On to `NC(=O)C(=Cc1ccc(CP(=O)(O)O)cc1)C(N)=O`, for which the TGI in the assay with SF-295 CNS, with SW-620 colon, with SK-MEL-28 melanoma, in the assay with COLO 205 colon and in the assay on K-562 leukemia was over 100 µM in each case.

Consider `Nc1nc(NC2C=C(CO)C(O)C2O)c([N+](=O)[O-])c(=O)[nH]1` (stereo unspecified), for which the TGI in the assay on SF-295 CNS, in the assay with SW-620 colon, in the assay with CCRF-CEM leukemia, in the assay on SK-MEL-28 melanoma, in the assay on COLO 205 colon and in the assay with K-562 leukemia was over 100 µM in each case.

For `COc1ccc(C2=Nc3c/c(=C\c4c(O)[nH]c5ccc(Cl)cc45)ccc3=N2)cc1`, the GI50 was 1.41 µM in the assay on SW-620 colon; 1.73 µM with HS 578T breast; 1.97 µM in the assay on CCRF-CEM leukemia; 1.59 µM with SK-MEL-28 melanoma; 1.93 µM with COLO 205 colon; 1 µM in the assay on K-562 leukemia. In addition, the TGI in the assay with SW-620 colon came to 3.28 µM; in the assay on HS 578T breast it was 4.8 µM; with CCRF-CEM leukemia, 5.52 µM; with SK-MEL-28 melanoma it was 5.13 µM; in the assay on COLO 205 colon it was 3.67 µM; with K-562 leukemia, 6.29 µM.

Regarding `NC(CC(=O)Nc1ccc(Cl)cc1)=Nc1ccccc1`, the TGI in the assay on SF-295 CNS, in the assay with SW-620 colon, in the assay on SK-MEL-28 melanoma, in the assay with COLO 205 colon and with K-562 leukemia was over 100 µM each time.

For the compound `O=C(O)c1ccc([S-])cc1.[Au+].c1ccc(CN2[CH-]N(Cc3ccccc3)C(c3ccccc3)=C2c2ccccc2)cc1`, the GI50 with SF-295 CNS is 0.242 µM; in the assay on SW-620 colon it was 0.418 µM; in the assay with HS 578T breast, 0.459 µM; with CCRF-CEM leukemia it was 0.356 µM; in the assay with MDA-MB-435 it was 0.417 µM; in the assay with SK-MEL-28 melanoma, 0.43 µM. Moreover, the GI50 was 0.269 µM in the assay with COLO 205 colon and 0.33 µM with K-562 leukemia. Moreover, the total growth inhibition concentration (TGI) came to 1.09 µM in the assay with SF-295 CNS; 1.93 µM in the assay on SW-620 colon; 2.84 µM in the assay on HS 578T breast; 2.72 µM with CCRF-CEM leukemia; 1.46 µM with MDA-MB-435; 1.71 µM with SK-MEL-28 melanoma. Moreover, the TGI with COLO 205 colon came to 0.824 µM; with K-562 leukemia, 1.67 µM.

What is called TGI is the concentration giving total growth inhibition. A lower TGI goes with greater sensitivity of the cells. The term GI50 denotes the concentration giving 50% growth inhibition.
